US20160256481A1, “USE OF WATER SOLUBLE PLATINUM COMPLEX IN PREPARING DRUGS FOR PREVENTION AND TREATMENT OF CANCERS” (GUDUI BIOPHARMA TECHNOLOGY INC., priority 2011, published 2016)

Columns and labels:
L1210 tumor cells = assay: Antitumor efficacy in L1210 tumor-bearing CDF1 mice (increase in life span); format: in vivo; settings: for Survived Animals on Day 42: 6 per group; for Weight Changes: from the first day to the seventh day
Experimental: In the following test, antitumor efficacy studies were performed using 8-9 weeks old female CDF1 mice, the average weight of the animal is 20-25 grams. L1210 tumor cells (about 10^5 cells per mouse) were inoculated intraperitoneally. The water-soluble platinum complexes were used to treat the tumor-bearing animals and the efficacy was compared compared with the clinical platinum antitumor drugs. […] Drugs were administered intraperitoneally on day 1 and day 4 after tumor cell transplantation. The number of experimental animals in each group was 6.
The experimental animals were purchased from Vital River Laboratory Animal Technology Co. Ltd., Tumor cells L1210-leukemia cells were purchased from Shanghai An Yan Commercial Trade Co. Ltd.
The increase in life span (ILS) is calculated as follows:
Wherein, St=the weighted median survival time of treated animals; Su=the weighted median survival time of untreated animals

[1] = test system: H460-human non-small cell lung cancer (large cell carcinoma); assay: MTS cytotoxicity assay (IC50); format: cell-based; settings: H460, 96 h, read-out: IC50 value in human tumor cells H460
Experimental: (§1) Containing 10% bovine fetal serum, 1 mM of sodium pyruvate, 2 mM of L-glutamine, 50 U/mL of penicillin, 50 μg/mL of streptomycin
(§2) Human tumor cells: du145-human prostate cancer; MCF-7-human breast cancer; SK0V3-human ovarian carcinoma, HT-29-human colon cancer; A549-human non-small cell lung cancer (adenocarcinoma), H460-human non-small cell lung cancer (large cell carcinoma), and animal tumor cells: L 1210-mice leukemia cells used in the following activity test experiments were all purchased from Shanghai An Yan Commercial Trade Co., Ltd.
(§3) MTS test method was used in cytotoxicity assay. The tumor cells of logarithmic phase were collected, and then the concentration of cell suspension was adjusted, 100 μL of the cell suspension was added to each well, the cells were placed at 1000-10000 cells/well (edge well filled with sterile PBS). Cells were incubated at 37° C. with 5% CO2 to make cell monolayer overspread the bottom of each well (96-well flat-bottomed microplate). 100 μL of different concentrations of the test compounds was added to each well. Each condition was measured in five replicates. The microplate was incubated at 37° C. with 5% CO2 for 96 h and checked with inverted microscope. MTS working reagent: To 2 mL of MTS (2 mg/mL, prepared by DPBS) was added 100 μL of PMS (1 mg/mL, prepared by DPBS). The cell culture medium was discarded after centrifugation, the cell culture plate was carefully washed 2-3 times with PBS. Before detecting the absorbance value (OD), to each sample containing well was added 100 μL of cell culture medium, then 20 μL of MTS working reagent was added. After incubation at 37° C. with 5% CO2 for 2 h, the OD (optical density) value was detected at 490 nm.
(§4) Control group: the conditions are the same as the above without adding the active ingredient of antitumor agents, and the OD value was detected at 490 nm on the end of the experiment.
(§5) The cell inhibiting rate of the drugs to tumor cell growth was calculated according to the following formula:
(§6) 1) Cell viability (%)=OD of treated group/OD of control group×100%
(§7) 2) The cell viabilities under the different drug concentrations were determined, and then plotted against drug concentration. The IC50 value is the corresponding concentration in the obtained curve when the cell viability was 50%.

[2] = test system: MCF-7-human breast cancer; assay: MTS cytotoxicity assay (IC50); format: cell-based; settings: MCF7, 96 h, read-out: IC50 value in human tumor cells MCF7
Experimental: as §1, §2, §3, §4, §5, §6, §7

[3] = test system: du145-human prostate cancer; assay: MTS cytotoxicity assay (IC50); format: cell-based; settings: DU145, 96 h, read-out: IC50 value in human tumor cells DU145
Experimental: as §1, §2, §3, §4, §5, §6, §7

HT-29-human colon cancer = assay: MTS cytotoxicity assay (IC50); format: cell-based; settings: HT29, 96 h, read-out: IC50 value in human tumor cells HT29
Experimental: as §1, §2, §3, §4, §5, §6, §7

[4] = test system: A549-human non-small cell lung cancer (adenocarcinoma); assay: MTS cytotoxicity assay (IC50); format: cell-based; settings: A549, 96 h, read-out: IC50 value in human tumor cells A549
Experimental: as §1, §2, §3, §4, §5, §6, §7

[5] = test system: SKOV3-human ovarian carcinoma; assay: MTS cytotoxicity assay (IC50); format: cell-based; settings: SKOV3, 96 h, read-out: IC50 value in human tumor cells SKOV3
Experimental: as §1, §2, §3, §4, §5, §6, §7

[6] = cited from earlier work
[7] = 1.25 mg/Kg i.p. day 1 and day 4

## cis-[trans-(1R, 2R)-diaminocyclohexane] Pt (II) (1-O-D-glucoside-propane-3-chloro-3,3-dicarboxylate) [Complex 2]
L1210 tumor cells; 50 mg/Kg i.p. day 1 and day 4
  ILS: >425%
  Survived Animals on Day 42: 6/6
  Weight Changes: +1.1 g
L1210 tumor cells; 100 mg/Kg i.p. day 1 and day 4
  ILS: >425%
  Survived Animals on Day 42: 6/6
  Weight Changes: +0 g
L1210 tumor cells; 200 mg/Kg i.p. day 1 and day 4
  ILS: >425%
  Survived Animals on Day 42: 6/6
  Weight Changes: -0.4 g
[1]
  IC50: 22 µM
[2]
  IC50: 2 µM
[3]
  IC50: 5.19 µM
HT-29-human colon cancer
  IC50: 1.88 µM
[4]
  IC50: 0.821 µM
[5]
  IC50: 10 µM

## N.N.O=C([O-])C1(C(=O)[O-])CCC1.[Pt+2] [Carboplatin]
L1210 tumor cells; 24 mg/Kg i.p. day 1 and day 4
  ILS: 8%
  Survived Animals on Day 42: 0/6
  Weight Changes: +0.6 g
L1210 tumor cells; 40 mg/Kg i.p. day 1 and day 4
  ILS: 22%
  Survived Animals on Day 42: 0/6
  Weight Changes: -0.4 g
L1210 tumor cells; 80 mg/Kg i.p. day 1 and day 4
  ILS: 50%
  Survived Animals on Day 42: 1/6
  Weight Changes: -1.2 g
[6]
  water solubility: 17 mg/mL

## N.N.[Cl][Pt][Cl] [Cisplatin]
L1210 tumor cells; [7]
  ILS: 20%
  Survived Animals on Day 42: 0/6
L1210 tumor cells; 2.5 mg/Kg i.p. day 1 and day 4
  ILS: 125%
  Survived Animals on Day 42: 1/6
L1210 tumor cells; 5.0 mg/Kg i.p. day 1 and day 4
  ILS: 265%
  Survived Animals on Day 42: 3/6
